One block for each compound: values may come before it.
Tests used:
[1] = biological target: Cytochrome P450 3A5 (Homo sapiens, UniProt P20815); assay: Mechanism based inhibition of human cytochrome P450 3A5 measured by testosterone hydroxylation; format: ADME
[2] = biological target: T1, Cytochrome P450 2E1 (Homo sapiens, UniProt P05181); assay: (§1) Mechanism based inhibition of human cytochrome P450 2E1; format: ADME
[3] = biological target: T1, Cytochrome P450 2E1; assay: as §1; format: ADME; remark: listed apart in the source
[4] = biological target: T2, Cytochrome P450 3A4 (Homo sapiens, UniProt P08684); assay: (§2) Mechanism based inhibition of human cytochrome P450 3A4; format: ADME
[5] = biological target: T3, CYP3A4 (Homo sapiens, UniProt P08684); assay: as §2; format: ADME; conditions: human
[6] = biological target: T4, CYP2B1 (Rattus norvegicus, UniProt P00176); assay: (§3) Mechanism based inhibition of rat cytochrome P450 CYP2B1 measured by 7-EFC O-deethylation activity; format: ADME; conditions: rat, probe 7-EFC (O-deethylation)
T4 sequence (P00176 whole entry): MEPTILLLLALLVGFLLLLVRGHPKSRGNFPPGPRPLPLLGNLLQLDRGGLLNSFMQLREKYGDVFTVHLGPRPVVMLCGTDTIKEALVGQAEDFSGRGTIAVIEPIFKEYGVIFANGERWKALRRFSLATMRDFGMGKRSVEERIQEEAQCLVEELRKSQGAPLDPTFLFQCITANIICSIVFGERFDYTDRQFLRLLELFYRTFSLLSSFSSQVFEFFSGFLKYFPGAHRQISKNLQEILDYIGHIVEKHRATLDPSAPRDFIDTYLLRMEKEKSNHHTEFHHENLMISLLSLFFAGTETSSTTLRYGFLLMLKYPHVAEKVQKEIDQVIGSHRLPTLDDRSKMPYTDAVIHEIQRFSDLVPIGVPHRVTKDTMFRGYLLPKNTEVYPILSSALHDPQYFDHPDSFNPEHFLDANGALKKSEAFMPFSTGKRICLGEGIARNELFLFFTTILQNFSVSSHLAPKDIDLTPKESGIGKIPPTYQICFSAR

[7] = biological target: T5, Cytochrome P450 2B1 (Rattus norvegicus, UniProt P00176); assay: as §3; format: ADME
T5 sequence (P00176 whole entry): T4 sequence (P00176 whole entry)

[8] = biological target: T5, Cytochrome P450 2B1; assay: Mechanism based inhibition of rat cytochrome P450 CYP2B1 partition ratio; format: ADME
[9] = biological target: T2, Cytochrome P450 3A4; assay: Mechanism based inhibition of human cytochrome P450 3A4 measured by testosterone 6-beta hydroxylation; format: ADME
[10] = biological target: T2, Cytochrome P450 3A4; assay: (§4) Mechanism based inhibition of human cytochrome P450 3A4 measured by nifedipine oxidation, omeprazole 3-hydroxylation and omeprazole sulfoxydation; format: ADME
[11] = biological target: T3, CYP3A4; assay: as §4; format: ADME; conditions: human
[12] = biological target: T6, Cytochrome P450 2A6 (Homo sapiens, UniProt P11509); assay: Mechanism based inhibition of human cytochrome P450 2A6; format: ADME
T6 sequence (P11509 whole entry): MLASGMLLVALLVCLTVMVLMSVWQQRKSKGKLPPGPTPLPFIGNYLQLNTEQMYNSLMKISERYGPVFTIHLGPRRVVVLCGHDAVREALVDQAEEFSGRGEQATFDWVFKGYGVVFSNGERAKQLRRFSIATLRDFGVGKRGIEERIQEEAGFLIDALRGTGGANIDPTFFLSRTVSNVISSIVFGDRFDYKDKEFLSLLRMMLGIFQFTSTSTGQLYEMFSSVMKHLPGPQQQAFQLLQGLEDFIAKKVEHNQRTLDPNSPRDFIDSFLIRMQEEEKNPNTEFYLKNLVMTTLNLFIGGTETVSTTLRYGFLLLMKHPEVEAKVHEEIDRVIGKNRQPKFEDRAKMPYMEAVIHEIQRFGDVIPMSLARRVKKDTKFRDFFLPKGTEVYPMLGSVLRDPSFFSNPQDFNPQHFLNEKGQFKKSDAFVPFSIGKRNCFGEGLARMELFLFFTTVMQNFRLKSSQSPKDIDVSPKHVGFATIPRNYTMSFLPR

[13] = biological target: T2, Cytochrome P450 3A4; assay: Mechanism based inhibition of human cytochrome P450 3A4 measured by lovastatin 6'-beta hydroxylase activity; format: ADME
[14] = biological target: T2, Cytochrome P450 3A4; assay: Mechanism based inhibition of human cytochrome P450 3A4 measured in vivo; format: ADME, organism-based
[15] = biological target: Cytochrome P450 2A13 (Homo sapiens, UniProt Q16696); assay: Mechanism based inhibition of human cytochrome P450 2A13 measured by coumarin 7-hydroxylation and testosterone 15-hydroxylation; format: ADME
[16] = biological target: CYP2D6 (Homo sapiens, UniProt P10635); assay: (§5) Mechanism based inhibition of human cytochrome P450 2D6 measured by dextromethorphan O-demethylation; format: ADME; conditions: human, probe dextromethorphan
[17] = biological target: Cytochrome P450 2D6 (Homo sapiens, UniProt P10635); assay: as §5; format: ADME
[18] = biological target: T7, Cytochrome P450 1A2 (Homo sapiens, UniProt P05177); assay: (§6) Mechanism based inhibition of human cytochrome P450 1A2 measured by 7-ethoxyresorufin O-deethylation (EROD)
T7 sequence (P05177 whole entry): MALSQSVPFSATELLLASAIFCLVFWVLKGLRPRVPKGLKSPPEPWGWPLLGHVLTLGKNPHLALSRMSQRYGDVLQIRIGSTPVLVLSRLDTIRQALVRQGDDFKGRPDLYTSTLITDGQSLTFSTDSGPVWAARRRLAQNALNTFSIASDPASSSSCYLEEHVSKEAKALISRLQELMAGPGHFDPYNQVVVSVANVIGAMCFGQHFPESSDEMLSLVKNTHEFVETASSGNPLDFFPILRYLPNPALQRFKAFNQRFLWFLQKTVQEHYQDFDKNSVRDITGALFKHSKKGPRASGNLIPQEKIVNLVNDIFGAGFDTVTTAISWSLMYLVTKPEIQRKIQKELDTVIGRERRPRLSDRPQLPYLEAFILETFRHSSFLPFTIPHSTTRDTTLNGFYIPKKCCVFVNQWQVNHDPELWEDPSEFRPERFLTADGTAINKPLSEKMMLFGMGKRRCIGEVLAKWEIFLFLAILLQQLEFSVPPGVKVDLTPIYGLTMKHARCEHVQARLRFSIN

[19] = biological target: T8, CYP1A2 (Homo sapiens, UniProt P05177); assay: as §6; conditions: human, probe 7-ethoxyresorufin (O-deethylation, EROD)
T8 sequence (P05177 whole entry): T7 sequence (P05177 whole entry)

T1 sequence (P05181 whole entry): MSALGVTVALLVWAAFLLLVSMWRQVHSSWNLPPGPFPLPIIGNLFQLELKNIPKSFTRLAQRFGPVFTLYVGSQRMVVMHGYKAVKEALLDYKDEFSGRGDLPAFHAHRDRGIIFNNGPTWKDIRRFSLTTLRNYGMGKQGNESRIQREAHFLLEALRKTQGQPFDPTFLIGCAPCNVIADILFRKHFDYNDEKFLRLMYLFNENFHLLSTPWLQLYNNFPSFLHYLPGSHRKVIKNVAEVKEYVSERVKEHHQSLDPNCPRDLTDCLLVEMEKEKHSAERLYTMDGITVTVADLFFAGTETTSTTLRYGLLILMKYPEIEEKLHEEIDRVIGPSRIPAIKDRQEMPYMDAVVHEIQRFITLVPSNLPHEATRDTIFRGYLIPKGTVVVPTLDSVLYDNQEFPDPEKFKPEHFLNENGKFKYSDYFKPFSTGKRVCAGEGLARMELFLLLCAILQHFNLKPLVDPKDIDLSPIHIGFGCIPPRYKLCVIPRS
T2 sequence (P08684 whole entry): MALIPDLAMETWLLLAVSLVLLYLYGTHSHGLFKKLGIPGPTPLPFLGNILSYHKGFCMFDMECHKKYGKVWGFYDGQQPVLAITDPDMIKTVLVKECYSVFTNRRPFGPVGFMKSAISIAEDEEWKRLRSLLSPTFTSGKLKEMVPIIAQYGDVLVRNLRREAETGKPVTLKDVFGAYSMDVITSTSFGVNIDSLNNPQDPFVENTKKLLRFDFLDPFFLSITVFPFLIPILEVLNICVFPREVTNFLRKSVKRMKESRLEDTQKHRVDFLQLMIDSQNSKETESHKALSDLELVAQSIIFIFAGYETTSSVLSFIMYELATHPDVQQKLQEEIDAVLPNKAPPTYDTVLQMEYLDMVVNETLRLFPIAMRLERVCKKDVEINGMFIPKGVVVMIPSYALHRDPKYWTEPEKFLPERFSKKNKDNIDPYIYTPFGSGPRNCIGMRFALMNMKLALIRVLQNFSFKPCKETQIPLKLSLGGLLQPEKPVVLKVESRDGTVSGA
T3 sequence (P08684 whole entry): as above
Sequence of Cytochrome P450 3A5 (P20815 whole entry): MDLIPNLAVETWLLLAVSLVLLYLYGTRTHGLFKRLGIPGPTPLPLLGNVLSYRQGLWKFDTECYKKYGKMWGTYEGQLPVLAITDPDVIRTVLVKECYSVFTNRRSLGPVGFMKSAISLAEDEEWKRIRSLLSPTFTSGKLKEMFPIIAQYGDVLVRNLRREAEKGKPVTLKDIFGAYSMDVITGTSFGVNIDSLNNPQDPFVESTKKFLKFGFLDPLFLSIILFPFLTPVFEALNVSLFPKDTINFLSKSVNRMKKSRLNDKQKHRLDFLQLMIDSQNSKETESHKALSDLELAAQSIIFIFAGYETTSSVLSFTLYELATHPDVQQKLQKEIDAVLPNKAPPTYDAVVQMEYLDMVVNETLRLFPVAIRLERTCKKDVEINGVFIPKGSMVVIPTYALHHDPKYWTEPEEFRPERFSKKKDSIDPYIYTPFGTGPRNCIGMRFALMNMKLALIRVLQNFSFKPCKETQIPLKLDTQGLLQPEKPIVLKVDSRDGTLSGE
Sequence of CYP2D6 (P10635 whole entry): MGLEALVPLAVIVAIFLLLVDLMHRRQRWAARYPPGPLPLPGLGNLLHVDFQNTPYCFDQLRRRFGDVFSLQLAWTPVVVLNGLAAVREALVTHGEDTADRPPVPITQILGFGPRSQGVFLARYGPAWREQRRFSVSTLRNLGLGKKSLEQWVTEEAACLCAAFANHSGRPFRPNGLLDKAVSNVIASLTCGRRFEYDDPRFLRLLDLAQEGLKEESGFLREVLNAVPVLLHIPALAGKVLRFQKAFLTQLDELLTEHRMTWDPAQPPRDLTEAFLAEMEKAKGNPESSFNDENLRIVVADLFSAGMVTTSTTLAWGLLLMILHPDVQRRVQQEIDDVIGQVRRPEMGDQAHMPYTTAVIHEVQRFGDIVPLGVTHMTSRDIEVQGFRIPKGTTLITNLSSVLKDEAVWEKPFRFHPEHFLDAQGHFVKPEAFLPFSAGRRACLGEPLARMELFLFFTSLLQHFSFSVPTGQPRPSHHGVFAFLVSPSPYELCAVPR
Sequence of Cytochrome P450 2D6 (P10635 whole entry): as above
Sequence of Cytochrome P450 2A13 (Q16696 whole entry): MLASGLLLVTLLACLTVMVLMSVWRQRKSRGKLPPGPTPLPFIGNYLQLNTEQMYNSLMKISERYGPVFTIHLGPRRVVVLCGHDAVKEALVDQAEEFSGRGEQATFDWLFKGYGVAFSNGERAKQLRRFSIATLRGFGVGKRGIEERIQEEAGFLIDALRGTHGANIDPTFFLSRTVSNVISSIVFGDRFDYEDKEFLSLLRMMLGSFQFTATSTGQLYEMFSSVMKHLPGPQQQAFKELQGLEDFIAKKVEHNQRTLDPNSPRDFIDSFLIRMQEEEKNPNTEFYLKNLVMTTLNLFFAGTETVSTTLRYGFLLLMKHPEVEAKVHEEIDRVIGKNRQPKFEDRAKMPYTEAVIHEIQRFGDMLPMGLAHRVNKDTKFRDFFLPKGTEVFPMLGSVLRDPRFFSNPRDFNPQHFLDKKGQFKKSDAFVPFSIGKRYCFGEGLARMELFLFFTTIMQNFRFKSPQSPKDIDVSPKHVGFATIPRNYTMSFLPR

- Ki [1]: 570 nM
Compound: Cc1c(O)cccc1C(=O)N[C@@H](CSc1ccccc1)[C@H](O)CN1C[C@H]2CCCC[C@H]2C[C@H]1C(=O)NC(C)(C)C

Compound: CCN(CC)C(=S)SSC(=S)N(CC)CC
- mechanism based inhibition [2]: Cytochrome P450 mechanistic inhibitor: PMID 1664256
- mechanism based inhibition ([2]; human): Cytochrome P450 mechanistic inhibitor: PMID 10805064
- mechanism based inhibition [3]: Cytochrome P450 mechanistic inhibitor: PMID 9695717

- Ki [4]: 26 µM
- kinact [5]: 0.00167 s⁻¹
Compound: CCc1c2c(nc3ccc(O)cc13)-c1cc3c(c(=O)n1C2)COC(=O)[C@]3(O)CC [7-ETHYL-10-HYDROXYCAMPTOTHECIN]

Compound: S=C=NCc1ccccc1 [BENZYL ISOTHIOCYANATE]
- kinact [6]: 0.011 s⁻¹
- Ki [7]: 5.8 µM
- partition_ratio [8]: 9

- Ki [4]: 59 µM
- kinact [5]: 0.00267 s⁻¹
- Ki [10]: 5.56 µM
- kinact [11]: 0.001 s⁻¹
Compound: C/C(=C\COc1c2ccoc2cc2oc(=O)ccc12)CCC(O)C(C)(C)O (centres undefined) [DIHYDROXYBERGAMOTTIN]
- mechanism based inhibition [9]: Cytochrome P450 mechanistic inhibitor: PMID 10859150

Compound: CCN(CC)C(=S)S [DITIOCARB]
- mechanism based inhibition [3]: Cytochrome P450 mechanistic inhibitor: PMID 9695717
- mechanism based inhibition [12]: Cytochrome P450 mechanistic inhibitor: PMID 9695717

Compound: CN1CCN(C(=O)N[C@@H](Cc2ccccc2)C(=O)N[C@H](/C=C/S(=O)(=O)c2ccccc2)CCc2ccccc2)CC1 [K-777]
- mechanism based inhibition [13]: Cytochrome P450 mechanistic inhibitor: PMID 11038163

Compound: CN(C)c1ccc([C@H]2C[C@@]3(C)[C@@H](CC[C@@]3(O)/C=C\CO)[C@@H]3CCC4=CC(=O)CCC4=C32)cc1 [LILOPRISTONE]
- mechanism based inhibition [14]: Cytochrome P450 mechanistic inhibitor: PMID 9697076

Compound: COc1c2occc2cc2ccc(=O)oc12 [METHOXSALEN]
- mechanism based inhibition [15]: Cytochrome P450 mechanistic inhibitor: PMID 15579482

- kinact [16]: 0.000433 s⁻¹
- Ki [17]: 960 nM
Compound: CCN(CC)CCNC(=O)c1cc(Cl)c(N)cc1OC [METOCLOPRAMIDE]

- Ki [18]: 9 µM
- kinact [19]: 0.00317 s⁻¹
Compound: Cc1c(-c2cnccn2)ssc1=S [OLTIPRAZ]

Compound: CN(C)c1ccc([C@H]2C[C@]3(C)[C@@H](CC[C@]3(O)CCCO)[C@@H]3CCC4=CC(=O)CCC4=C32)cc1 [ONAPRISTONE]
- mechanism based inhibition [14]: Cytochrome P450 mechanistic inhibitor: PMID 9697076
